Reference: ChEMBL document CHEMBL1201862, “PubChem BioAssay data set” (2004)
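Each compound was tested at five concentrations against cells in 96-well plates for 48 hours. The concentration for 50% growth inhibition is given as GI50.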 Calls of active or inactive are those of the source. No stated cut-off is given here; in the data, active = GI50 up to about 1.1 µM and inactive = higher.

How the values were obtained:
Assay in all cases: NCI-60 cell line screen, 48 h
MOLT-4 = test system: MOLT-4
SNB-75 = test system: SNB-75
IGROV-1 = test system: IGROV-1
786-0 = test system: 786-0
NCI-H23 = test system: NCI-H23
CAKI-1 = test system: CAKI-1
OVCAR-3 = test system: OVCAR-3
U-251 = test system: U-251
NCI-H460 = test system: NCI-H460
SW-620 = test system: SW-620
ACHN = test system: ACHN
UACC-257 = test system: UACC-257
OVCAR-5 = test system: OVCAR-5
SK-MEL-2 = test system: SK-MEL-2
NCI-H522 = test system: NCI-H522
OVCAR-8 = test system: OVCAR-8
Malme-3M = test system: Malme-3M
HCT-116 = test system: HCT-116

Measured: GI50

O=C(CSSCC(=O)OCCS(=O)(=O)Nc1ccc(Br)cc1)OCCS(=O)(=O)Nc1ccc(Br)cc1
inactive: MOLT-4 3.11 µM | SNB-75 28.2 µM | IGROV-1 17.3 µM | 786-0 > 10 µM | NCI-H23 11.4 µM | CAKI-1 2.83 µM | OVCAR-3 13.1 µM | U-251 21.7 µM | NCI-H460 14.5 µM | SW-620 8.45 µM | ACHN 18 µM | UACC-257 9.46 µM | OVCAR-5 13.9 µM | SK-MEL-2 12.5 µM | NCI-H522 6.53 µM | OVCAR-8 10.4 µM | Malme-3M 3.8 µM

Fc1ccc(C2SCc3nc4ccccc4n32)cc1F (configuration not stated)
inactive: MOLT-4 21.4 µM | SNB-75 20.1 µM | IGROV-1 33.5 µM | 786-0 55.3 µM | NCI-H23 21.1 µM | HCT-116 26.8 µM | CAKI-1 43.1 µM | OVCAR-3 26.9 µM | U-251 48.2 µM | NCI-H460 37.4 µM | SW-620 39.4 µM | ACHN 30 µM | UACC-257 42.1 µM | SK-MEL-2 23.8 µM | NCI-H522 18.3 µM | OVCAR-8 33.8 µM | Malme-3M 25.9 µM

C=C1CC(CC)(CCN2C(=O)c3ccccc3C2=O)OC1=O (configuration not stated)
inactive: MOLT-4 21.9 µM | SNB-75 43.8 µM | IGROV-1 35.8 µM | 786-0 11.9 µM | NCI-H23 14.1 µM | HCT-116 12.6 µM | CAKI-1 2.09 µM | U-251 > 10 µM | NCI-H460 69.2 µM | SW-620 7.55 µM | ACHN 14.9 µM | UACC-257 13.8 µM | SK-MEL-2 12.9 µM | NCI-H522 3.48 µM | OVCAR-8 16.4 µM | Malme-3M 11.8 µM

COC(=O)C(=O)C(C(=O)C(=O)Nc1ccc(OC)cc1[N+](=O)[O-])c1nc2ccc([N+](=O)[O-])cc2nc1O (configuration not stated)
inactive: MOLT-4 > 100 µM | SNB-75 26.5 µM | IGROV-1 > 100 µM | 786-0 > 100 µM | NCI-H23 > 100 µM | HCT-116 > 100 µM | CAKI-1 > 100 µM | OVCAR-3 > 100 µM | U-251 > 100 µM | NCI-H460 > 100 µM | SW-620 > 100 µM | ACHN > 100 µM | UACC-257 > 100 µM | OVCAR-5 > 100 µM | NCI-H522 > 100 µM | OVCAR-8 > 100 µM | Malme-3M > 100 µM
